Assay results as given in patent publication EP0937734B1, “11-Acetyl-12,13-dioxabicyclo ¬8.2.1 tridecenone derivatives, process for making them and pharmaceutical compositions containing them” (Abbott Products GmbH, priority 1998, dated 1999).

Legend:
Motilin-Rezeptoren = target: T1, Motilin-Rezeptoren (Oryctolagus cuniculus, UniProt G1T803); test: Binding of test substances to motilin receptors (displacement of 125I-labelled motilin, crude membrane preparation from rabbit antrum); design: species or system Kaninchen; details: displacement of iodinated motilin (50 pM), rabbit antrum membrane fraction, 60 min at 30 °C; calculated from IC50
T1 construct: Die so erhaltene Gewebefraktion, welche als "rohe Membranzubereitung" bezeichnet wird, wird für den Test eingesetzt; from tissue; host or cells: rabbit antrum freed of mucosa, crude membrane fraction
Text: 1. Bestimmung des Bindungsvermögens der Testsubstanzen an Motilin-Rezeptoren.
Die Affinität der Verbindungen der Formel I an Motilin-Rezeptoren wird in vitro an einer Fraktion eines Gewebehomogenats aus dem Kaninchenantrum gemessen. Bestimmt wird die Verdrängung von radioaktiv markiertem jodiertem Motilin aus der Motilin-Rezeptor-Bindung durch die Testsubstanzen.
Die Rezeptor-Bindungsstudien werden nach einer Modifikation der Methode von Borman et al. (Regulatory Peptides 15 (1986), 143-153) durchgeführt. Zur Herstellung des ^125Jodmarkierten Motilins wird Motilin auf an sich bekannte Weise, z. B. analog der von Bloom et al. (Scand. J. Gastroenterol. 11 (1976) 47 - 52) beschriebenen Methode enzymatisch unter Verwendung von Lactoperoxidase jodiert.
Zur Gewinnung der in dem Test verwendeten Gewebehomogenatfraktion aus dem Kaninchenantrum wird das von Schleimhäuten befreite Antrum zerkleinert und im 10-fachen Volumen einer kalten Homogenisierungspufferlösung (50 mM Tris-HCl-Puffer, 250 mM Sucrose, 25 mM KCl, 10 mM MgCl2, pH 7,4) mit Zusatz von Inhibitoren (1 mM Jodacetamid, 1 µM Pepstatin, 0,1 mM Methylsulfonylfluorid, 0,1 g/l Trypsininhibitor, 0,25 g/l Bacitracin) mit einem Homogenisator 15 sec. bei 1500 Umdrehungen pro Minute homogenisiert. […]

[1] = In vivo determination of the influence on gastric tone (barostat, gastric volume at constant pressure after lipid-induced relaxation); design: species or system Beagle-Hunden
Text: 2. In-vivo-Bestimmung des Einflusses der Substanzen auf den Magentonus
Der Magentonus spielt eine wichtige Rolle bei der Magenentleerung. Ein erhöhter Magentonus trägt zu einer beschleunigten Magenentleerung bei.
Der Einfluß von Substanzen auf den Magentonus wird an Beagle-Hunden mit Hilfe eines Barostaten bestimmt, welcher mit einem Kunststoffbeutel im Magen des Hundes verbunden ist und die Messung von Volumen oder Druck im Magen des Hundes ermöglicht. Mit dem Barostaten wird das Magenvolumen bei konstantem Druck im Magen oder der Magendruck bei konstantem Volumen im Magen bestimmt. Bei Erhöhung des Magentonus stellt man bei einem bestimmten Druck ein verringertes Magenvolumen fest und einen erhöhten Druck bei einem bestimmten Volumen. In dem zur Untersuchung der durch die Substanzen bewirkten Erhöhung des Magentonus verwendeten Testmodell wird die durch die Substanzen verursachte Magenvolumenänderung bei konstantem Druck gemessen. Der Magen der Versuchstiere wird durch Lipideinnahme relaxiert, d. h. der Magentonus sinkt, wodurch das Magenvolumen entsprechend zunimmt. Als Maß für die den Magentonus erhöhende Wirkung der Substanzen wird die nach Substanzeinnahme durch Wiederanstieg des Magentonus eintretende Reduktion des durch Lipidgabe vergrößerten Magenvolumens in % gemessen. […]

[2] = In vivo determination of the influence on the resting tone of the lower oesophageal sphincter (pull-through manometry); design: species or system Beagle-Hunden
Text: 3. In-vivo-Bestimmung des Einflusses der Substanzen auf den Ruhe-Tonus des unteren Oesophagus Sphincter.
Diese Bestimmung wird an männlichen, wachen, nüchternen Beagle-Hunden vorgenommen, denen vor Versuchsbeginn je eine Oesophagus-Fistel und eine Duodenal-Kanüle gelegt worden sind. Der Druck des unteren Oesophagus Sphincter wird mittels eines perfundierten Kathetersystems mit seitlicher Öffnung, das mit einem Druckaufnehmer und einem Recorder verbunden ist, gemessen. Der Katheter wird über die Oesophagus-Fistel in den Magen geführt und dann langsam manuell zurückgezogen (= Durchzugsmanometrie). Beim Passieren des Katheterteils mit der seitlichen Öffnung durch die Hochdruckzone des unteren Oesophagus Sphincter wird ein Peak registriert. Aus diesem Peak wird der Druck in mm Hg bestimmt.
Auf diese Weise wird zunächst als Kontrollwert der basale Druck des Oesophagus Sphincter bestimmt. Anschließend wird die Testsubstanz oral appliziert und nach 15 min. wird der Druck am unteren Oesophagus Sphincter in 2-Minuten-Intervallen über einen Zeitraum von 60 min. gemessen. Die Steigerung des Druckes nach Testsubstanzgabe im Vergleich zu dem vorbestimmten basalen Druck wird berechnet.
In diesem Test nahm der basale Tonus des Oesophagus Sphincter durch eine Dosis von 2,15 µMol/kg der Substanz des Beispiels 1 um 143 % zu. Dieser Effekt hielt während der gesamten Testdauer von 60 min. an.

T1 sequence (G1T803 1-400): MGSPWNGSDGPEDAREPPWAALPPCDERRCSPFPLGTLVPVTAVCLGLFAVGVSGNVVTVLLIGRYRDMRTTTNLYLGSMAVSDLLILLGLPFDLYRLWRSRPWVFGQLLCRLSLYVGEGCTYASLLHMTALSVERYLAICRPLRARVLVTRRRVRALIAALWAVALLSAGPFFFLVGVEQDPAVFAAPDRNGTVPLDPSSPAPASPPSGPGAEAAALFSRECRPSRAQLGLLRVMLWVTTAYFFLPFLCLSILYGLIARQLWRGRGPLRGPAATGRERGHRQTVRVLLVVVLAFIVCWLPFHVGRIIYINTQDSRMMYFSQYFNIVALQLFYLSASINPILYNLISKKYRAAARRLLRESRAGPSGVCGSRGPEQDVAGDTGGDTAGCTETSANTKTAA

Row | IC50 (Motilin-Rezeptoren) | Compound | Reduktion des nach Lipidgabe vergrößerten Magenvolumens ([1]; Beagle dogs, 2,15 µmol/kg i.d., constant pressure) | Reduktion des Magenvolumens (Lipid-induzierte Relaxierung des Magenvolumens) ([1]; Beagle dogs, 2,15 µmol/kg oral) | Duration of the effect on the tone of the Oesophagus Sphincter ([2]; 2,15 µMol/kg oral, effect lasted for the whole test duration) | Zunahme des basalen Tonus des Oesophagus Sphincter ([2]; conscious fasted male Beagle dogs, 2,15 µMol/kg oral, versus basal pressure)
1 | 9.77 nM | CO[C@]1(C)C[C@H](O[C@H]2[C@H](C)[C@@H](O[C@@H]3O[C@H](C)C[C@H](N(C)C(C)C)[C@H]3O)[C@@]3(C)CC(C)=C(O3)[C@H](C)[C@H](C(C)=O)OC(=O)[C@@H]2C)O[C@@H](C)[C@@H]1O [Beispiel 1, (2R,3S,4S,5R,6R,10R,11R]-3-[(2,6-Didesoxy-3-C-methyl-3-O-methyl-α-L-ribohexopyranosyl)-oxy]-5-[(3,4,6-tridesoxy-3-(N-methyl-N-isopropylamino)-β-D-xylohexopyranosyl)-oxy]-2,4,6,8,10-pentamethyl-11-acetyl-12,13-dioxabicyclo[8.2.1]-tridec-8-en-1-on] | 59,5% | praktisch völlig verhindert | ≥ 60 min | 143%
2 | 17.8 nM | CO[C@]1(C)C[C@H](O[C@H]2[C@H](C)[C@@H](O[C@@H]3O[C@H](C)C[C@H](N(C)C(C)C)[C@H]3OC(C)=O)[C@@]3(C)CC(C)=C(O3)[C@H](C)[C@H](C(C)=O)OC(=O)[C@@H]2C)O[C@@H](C)[C@@H]1O [Beispiel 2, (2R,3S,4S,5R,6R,10R,11R)-3-[(2,6-Didesoxy-3-C-methyl-3-O-methyl-α-L-ribohexopyranosyl)-oxy]-5-[(3,4,6-tridesoxy-2-O-acetyl-3-(N-methyl-N-isopropylamino)-β-D-xylohexopyranosyl)-oxy]-2,4,6,8,10-pentamethyl-11-acetyl-12,13-dioxabicyclo-[8.2.1]tridec-8-en-1-on] | – | – | – | –
